Legend:
Format in all cases: cell-based
[1] = tested on: HeLa cervical adenocarcinoma; experiment: Cell proliferation assay (14C-thymidine incorporation), HeLa; settings: Homo sapiens, read-out: Inhibition of cell proliferation IC50
Description: (§1) The ability of a test compound to inhibit the proliferation of cell growth was determined by measuring incorporation of ^14C-labelled thymidine into newly synthesized DNA within the cells. This method was used on cell lines derived from carcinomas originating from several tissues such as HeLa cervical adenocarcinoma (American Type Culture Collection (ATCC), Virginia, Cat. #CCL-2), A375 malignant melanoma (ATCC CRL-1619), SK-OV-3 ovarian adenocarcinoma (ATCC HTB-77) HCT-116 colon carcinoma (CCL-247) and PC-3 prostate adenocarcinoma (ATCC CRL-1435). The method was also used on primary cells such as HUVEC endothelial cells (ATCC CRL-1730). In this way the effect of a compound on cell growth of cells with many different phenotypes can be determined. Cells were trypsinized and counted and 3000-8000 cells were added to each well of a 96-well CytoStar tissue culture treated scintillating microplate (Amersham #RPNQ0160) in complete medium in a volume of 100 μl. Cells were incubated for 24 hours in complete medium at 37° C. in an atmosphere containing 5% CO2.
(§2) Next, 1 μl of test compound in 100% DMSO was added to the wells of the plate. DMSO only was added to control wells. Cells were incubated for 24 more hours in complete medium at 37° C. in an atmosphere containing 5% CO2. Methyl ^14C-thymidine 56 mCi/mmol (NEN #NEC568 or Amersham #CFA532) was diluted in complete medium and 0.2 μCi/well was added to each well of the CytoStar plate in a volume of 20 μl. The plate was incubated for 24 hours at 37° C. plus 5% CO2 in drug plus ^14C-thymidine. The contents of the plate were discarded into a ^14C radioactive waste container by inverting the plate and the plate was washed twice with 200 μl PBS. 200 μl of PBS is then added to each well. The top of the plate was sealed with a transparent plate sealer and a white plate backing sealer (Packard #6005199) was applied to the bottom of the plate. The degree of Methyl ^14C-thymidine incorporation was quantified on a Packard Top Count.

HCT-116 colon carcinoma = experiment: Cell proliferation assay (14C-thymidine incorporation), HCT-116; settings: Homo sapiens, read-out: Inhibition of cell proliferation IC50
Description: as §1, §2

[2] = tested on: SK-OV-3 ovarian adenocarcinoma; experiment: Cell proliferation assay (14C-thymidine incorporation), SK-OV-3; settings: Homo sapiens, read-out: Inhibition of cell proliferation IC50
Description: as §1, §2

MDA-MB-231 = experiment: Cell proliferation assay (14C-thymidine incorporation), MDA-MB-231; settings: Homo sapiens, read-out: Inhibition of cell proliferation IC50
Description: as §1, §2

[3] = tested on: PC-3 prostate adenocarcinoma; experiment: Cell proliferation assay (14C-thymidine incorporation), PC-3; settings: Homo sapiens, read-out: Inhibition of cell proliferation IC50
Description: as §1, §2

rat aortic ring = experiment: Rat aortic ring assay (vascular sprouting); settings: 192 h; rat aortic ring in fibrin gel, analyzed on day 8; read-out: Inhibition of Vascular Sprouting (IC50μM)
Description: The rat aortic ring assay is a rapid in vitro assay that measures new capillary growth in an environment that closely approximates the in vivo conditions of the extracellular matrix. The assay was performed as described (Nicosia, R F and Ottinetti, A. Growth of new microvessels in serum-free matrix culture of rat aorta. Lab Invest., 63: 115-122, 1990). Thoracic aortas were removed from 1 to 2-month old male Sprague-Dawley rats and transferred to a culture dish containing serum-free MCDB 131 medium (Clonetics). Extraneous tissue was removed and the aorta was sectioned into rings approximately 1 mm long and rinsed 8-10 times in serum-free medium. A solution of sterile 1.5% agarose (Type VI-A, Sigma, St. Louis, Mo.) was added to the wells of a 6-well plate. The wells were filled with clotting fibrinogen solution and an aortic ring was transferred into the well positioned with the lumen oriented horizontally in the center of the fibrin gel solution. The fibrinogen solution was prepared in MCDB 131 medium with bovine fibrinogen at 3 mg/ml. Clotting was initiated by adding 20 μl of a 50 NIH units/ml bovine thrombin solution and the fibrin gel generally formed within 30 seconds. The fibrinolytic inhibitor amino-n-caproic acid was added to the culture medium at 300 µg/ml (microgram per milliliter) for the first four days of the assay and at 50 μg/ml from day 5 to day 8. Once the fibrin gel solution solidified, 5 ml of serum-free MCDB 131 media containing 100 μg/ml penicillin, 100 μg/ml streptomycin and 0.25 μg/ml amphotericin B was added to each well. Explants were incubated at 37° C. with 5% CO2 for 8 days. Medium was replaced every 2-3 days and the assay was analyzed on day 8. Inhibition of vascular sprouting was measured by adding test compounds diluted in DMSO.

Row | IC50 [1] | IC50 (HCT-116 colon carcinoma) | IC50 [2] | IC50 (MDA-MB-231) | IC50 [3] | IC50 (rat aortic ring) | SMILES
1 | 4.56 µM | 8.35 µM | 3 µM | 3.26 µM | 11.3 µM | 0.099 µM | OCCCNc1cncc(-c2cncc(Nc3cccc(Cl)c3)n2)c1 [Cmd 4, 3-[[5-[6-[(3-chlorophenyl)amino]pyrazinyl]-3-pyridinyl]amino]-1-propanol]
2 | 86.4 µM | 23.5 µM | 14.6 µM | 27.6 µM | 67.6 µM | 0.83 µM | OCCCCNc1cncc(-c2cncc(Nc3cccc(Cl)c3)n2)c1 [Cmd 32, 4-[[5-[6-[(3-chlorophenyl)amino]pyrazinyl]-3-pyridinyl]amino]-1-butanol]

Row | SMILES | IC50 [1] | IC50 (HCT-116 colon carcinoma) | IC50 [2] | IC50 (MDA-MB-231) | IC50 [3] | IC50 (rat aortic ring)
3 | CN(C)CCCNc1cncc(-c2cncc(Nc3cccc(Cl)c3)n2)c1 [Cmd 35, N^1-[5-[6-[(3-chlorophenyl)amino]pyrazinyl]-3-pyridinyl]-N^3,N^3-dimethyl-1,3-propanediamine] | > 100 µM | > 100 µM | 19.3 µM | 98.3 µM | > 100 µM | > 1 µM
